How the values were obtained:
Nek7^SRS = molecular target: T1, Nek7^SRS (Homo sapiens, UniProt Q8TDX7, L180F/L86H/Y97F); assay: X-ray co-crystal structure, […] Å; IC50 from LabChip EZ Reader kinase assay; type: biochemical
T1 construct: Nek7 strong R-spine mutant, C-terminal non-cleavable His6-tag

Nek7^WT = molecular target: T2, Nek7^WT (Homo sapiens, UniProt Q8TDX7); assay: as above; type: biochemical
T2 construct: wild-type Nek7, C-terminal non-cleavable His6-tag
T2 sequence (Q8TDX7 whole entry): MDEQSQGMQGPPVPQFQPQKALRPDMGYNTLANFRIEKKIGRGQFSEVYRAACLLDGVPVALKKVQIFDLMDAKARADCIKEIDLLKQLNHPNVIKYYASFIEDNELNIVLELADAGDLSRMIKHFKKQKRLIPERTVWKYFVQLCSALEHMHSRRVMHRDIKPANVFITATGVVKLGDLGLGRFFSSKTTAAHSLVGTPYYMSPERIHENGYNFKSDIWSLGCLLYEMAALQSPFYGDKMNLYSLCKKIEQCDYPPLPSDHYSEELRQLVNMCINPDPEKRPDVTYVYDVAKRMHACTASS

T1 sequence (Q8TDX7 whole entry L86H/Y97F/L180F): as the sequence (Q8TDX7 whole entry) above, with L86H, Y97F, L180F counted along it

## CN(C)CCCNS(=O)(=O)c1cccc(Nc2nc(OCC3CCCCC3)c3nc[nH]c3n2)c1 [compound 51]
Nek7^SRS
  IC50: 40.1 µM
Nek7^WT
  IC50: 79 µM

From article PMC7200626, “Nek7 conformational flexibility and inhibitor binding probed through protein engineering of the R-spine” (Biochemical Journal, 2020)
